Data on one compound can be found in article PMC7647782, “Cytotoxic, Antioxidant, and Metabolic Enzyme Inhibitory Activities of Euphorbia cyparissias Extracts” (Oxidative Medicine and Cellular Longevity, 2020).

The structures appear in SMILES notation. pIC50: −log10 of the molar value.

This assay has as its target DrPLA2-IB (Camelus dromedarius, UniProt A0A5N4C9D4). Description: Phospholipase activity inhibition, dromedary PLA2-IB. In kind it is biochemical. On the procedure: Dromedary (DrPlA2-IB), porcine (PPPlA2-IB), and stingray group IB phospholipases (SPLA2-IB) were purified and prepared as described in our previous works and De Haas et al., respectively. Dromedary (DrPL), stingray (SPL), and porcine (PPL) lipases were also purified according to protocols optimized in previous works. The enzymes β-glucosidase, α-amylase, and XO were purchased from Sigma-Aldrich (St. Louis, MO, USA).
The phospholipase activities were measured based on the De Araújo and Radvanyi method. The inhibitory effect of various extracts was determined using samples of dromedary, stingray, and porcine digestive group IB phospholipases (PLA2-IB). A 10 μL sample of ethanolic or aqueous extract was mixed with 10 μL of PLA2-GIB and preincubated for 20 min at room temperature. The mixture was added to 1 mL of the substrate, which was composed of lecithin (3.5 mM) solubilized in 100 mM NaCl, 3 mM sodium taurodeoxycholate, 10 mM CaCl2, and 0.055 mM red phenol at a pH of 7.6. The activity was verified by measuring spectrophotometrically the absorbance at 558 nm for 5 min. The inhibition percentage was calculated by measuring residual activity compared to negative control assay (absence of extract). The IC50 values were determined from the curve.
The activities of these enzymes were measured using the pH-stat technique on olive oil emulsion at optimal conditions for enzyme activity. […]

Sequence of DrPLA2-IB (A0A5N4C9D4 23-145): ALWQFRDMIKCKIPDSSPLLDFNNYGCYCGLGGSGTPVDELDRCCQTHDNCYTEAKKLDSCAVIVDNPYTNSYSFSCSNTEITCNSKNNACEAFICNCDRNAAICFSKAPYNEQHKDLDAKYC

In general, pIC50 refers to the IC50 on a negative log10 scale, so that one unit is a factor of ten. Turning to `CC1(C)CC[C@]2(C(=O)O)CC[C@]3(C)C(=CC[C@@H]4[C@@]5(C)CC[C@H](O)C(C)(C)[C@@H]5CC[C@]43C)[C@@H]2C1` [Oleanolic acid, oleanolic acid], the pIC50 was 3.76.
